In data set [1] the target is Metabotropic glutamate receptor 3 (Homo sapiens, UniProt Q14832). Briefly: Positive allosteric modulation of mGluR3 (unknown origin) by calcium mobilization assay. The class given is functional. For orientation: A change in cytosolic calcium serves as a functional read-out for many receptors and channels.
For data set [2], the target named is Metabotropic glutamate receptor 4 (Homo sapiens, UniProt Q14833). Put plainly: Positive allosteric modulation of human mGluR4 by calcium mobilization assay. The data set is classed as functional.
Sequence of Metabotropic glutamate receptor 4 (Q14833 whole entry): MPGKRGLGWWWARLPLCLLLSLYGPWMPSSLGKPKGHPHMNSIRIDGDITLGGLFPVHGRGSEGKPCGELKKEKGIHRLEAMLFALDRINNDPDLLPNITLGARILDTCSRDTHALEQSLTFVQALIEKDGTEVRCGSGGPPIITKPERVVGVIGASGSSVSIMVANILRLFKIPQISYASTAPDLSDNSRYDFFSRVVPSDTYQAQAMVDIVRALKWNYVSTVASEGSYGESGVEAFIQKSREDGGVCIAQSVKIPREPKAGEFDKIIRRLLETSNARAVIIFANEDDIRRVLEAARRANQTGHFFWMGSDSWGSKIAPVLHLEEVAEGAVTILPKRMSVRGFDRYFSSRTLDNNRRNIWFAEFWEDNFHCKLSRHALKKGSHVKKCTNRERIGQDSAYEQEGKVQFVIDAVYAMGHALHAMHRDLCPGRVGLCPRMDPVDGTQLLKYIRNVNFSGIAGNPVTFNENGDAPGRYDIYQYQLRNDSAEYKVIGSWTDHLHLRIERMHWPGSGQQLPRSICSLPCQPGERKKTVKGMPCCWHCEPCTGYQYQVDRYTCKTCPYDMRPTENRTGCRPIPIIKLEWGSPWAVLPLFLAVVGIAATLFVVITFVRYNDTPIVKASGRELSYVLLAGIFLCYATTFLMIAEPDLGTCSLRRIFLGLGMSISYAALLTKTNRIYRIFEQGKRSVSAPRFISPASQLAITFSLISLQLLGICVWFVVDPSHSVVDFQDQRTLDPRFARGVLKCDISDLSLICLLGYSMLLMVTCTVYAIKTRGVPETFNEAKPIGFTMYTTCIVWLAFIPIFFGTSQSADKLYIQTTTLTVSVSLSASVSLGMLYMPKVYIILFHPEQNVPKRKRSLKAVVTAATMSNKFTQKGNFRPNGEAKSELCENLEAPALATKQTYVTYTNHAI
The target in data set [3] is Metabotropic glutamate receptor 6 (Homo sapiens, UniProt O15303). Briefly: Positive allosteric modulation of mGluR6 (unknown origin) by calcium mobilization assay. The data set is classed as functional.
The target in data set [4] is Metabotropic glutamate receptor 5 (Homo sapiens, UniProt P41594). Put plainly: Positive allosteric modulation of mGluR5 (unknown origin) by calcium mobilization assay. The data set is classed as functional.
The target of data set [5] is Metabotropic glutamate receptor 8 (Homo sapiens, UniProt O00222). Put plainly: Positive allosteric modulation of mGluR8 (unknown origin) by calcium mobilization assay. The data set is classed as functional.
The target in data set [6] is Metabotropic glutamate receptor 2 (Homo sapiens, UniProt Q14416). Briefly: Positive allosteric modulation of mGluR2 (unknown origin) by calcium mobilization assay. The class given is functional.
Sequence of Metabotropic glutamate receptor 2 (Q14416 whole entry): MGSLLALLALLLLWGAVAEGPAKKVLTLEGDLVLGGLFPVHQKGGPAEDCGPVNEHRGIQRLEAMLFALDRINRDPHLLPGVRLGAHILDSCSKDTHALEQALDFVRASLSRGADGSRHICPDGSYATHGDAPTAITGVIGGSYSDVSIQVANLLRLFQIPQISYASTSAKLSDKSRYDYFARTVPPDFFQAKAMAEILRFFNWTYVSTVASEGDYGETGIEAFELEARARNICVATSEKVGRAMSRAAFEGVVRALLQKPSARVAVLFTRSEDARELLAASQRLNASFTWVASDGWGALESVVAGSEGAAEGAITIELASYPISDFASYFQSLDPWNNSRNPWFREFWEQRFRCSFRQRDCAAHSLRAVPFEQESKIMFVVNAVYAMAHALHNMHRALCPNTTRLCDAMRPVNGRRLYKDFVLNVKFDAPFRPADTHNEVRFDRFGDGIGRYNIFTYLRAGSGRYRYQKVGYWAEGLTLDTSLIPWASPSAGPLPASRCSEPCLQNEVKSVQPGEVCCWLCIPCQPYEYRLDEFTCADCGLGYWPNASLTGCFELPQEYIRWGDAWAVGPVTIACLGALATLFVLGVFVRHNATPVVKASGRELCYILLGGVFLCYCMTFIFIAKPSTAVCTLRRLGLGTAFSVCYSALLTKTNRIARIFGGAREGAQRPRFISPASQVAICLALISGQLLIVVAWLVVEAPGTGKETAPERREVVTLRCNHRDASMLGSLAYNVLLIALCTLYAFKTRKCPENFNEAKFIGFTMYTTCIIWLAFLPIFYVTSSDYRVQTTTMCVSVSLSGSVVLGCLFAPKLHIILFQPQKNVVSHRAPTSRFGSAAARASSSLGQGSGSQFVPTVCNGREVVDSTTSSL
Data set [7] concerns the target Metabotropic glutamate receptor 7 (Homo sapiens, UniProt Q14831). Put plainly: Positive allosteric modulation of human mGluR7 in presence of EC20 concentration of L-AP4 by calcium mobilization assay. The class given is functional.
Data set [8] deals with Metabotropic glutamate receptor 1 (Homo sapiens, UniProt Q13255). Briefly: Positive allosteric modulation of human mGluR1 in presence of EC20 concentration of glutamate by calcium mobilization assay. The class given is functional.
Sequence of Metabotropic glutamate receptor 1 (Q13255 whole entry): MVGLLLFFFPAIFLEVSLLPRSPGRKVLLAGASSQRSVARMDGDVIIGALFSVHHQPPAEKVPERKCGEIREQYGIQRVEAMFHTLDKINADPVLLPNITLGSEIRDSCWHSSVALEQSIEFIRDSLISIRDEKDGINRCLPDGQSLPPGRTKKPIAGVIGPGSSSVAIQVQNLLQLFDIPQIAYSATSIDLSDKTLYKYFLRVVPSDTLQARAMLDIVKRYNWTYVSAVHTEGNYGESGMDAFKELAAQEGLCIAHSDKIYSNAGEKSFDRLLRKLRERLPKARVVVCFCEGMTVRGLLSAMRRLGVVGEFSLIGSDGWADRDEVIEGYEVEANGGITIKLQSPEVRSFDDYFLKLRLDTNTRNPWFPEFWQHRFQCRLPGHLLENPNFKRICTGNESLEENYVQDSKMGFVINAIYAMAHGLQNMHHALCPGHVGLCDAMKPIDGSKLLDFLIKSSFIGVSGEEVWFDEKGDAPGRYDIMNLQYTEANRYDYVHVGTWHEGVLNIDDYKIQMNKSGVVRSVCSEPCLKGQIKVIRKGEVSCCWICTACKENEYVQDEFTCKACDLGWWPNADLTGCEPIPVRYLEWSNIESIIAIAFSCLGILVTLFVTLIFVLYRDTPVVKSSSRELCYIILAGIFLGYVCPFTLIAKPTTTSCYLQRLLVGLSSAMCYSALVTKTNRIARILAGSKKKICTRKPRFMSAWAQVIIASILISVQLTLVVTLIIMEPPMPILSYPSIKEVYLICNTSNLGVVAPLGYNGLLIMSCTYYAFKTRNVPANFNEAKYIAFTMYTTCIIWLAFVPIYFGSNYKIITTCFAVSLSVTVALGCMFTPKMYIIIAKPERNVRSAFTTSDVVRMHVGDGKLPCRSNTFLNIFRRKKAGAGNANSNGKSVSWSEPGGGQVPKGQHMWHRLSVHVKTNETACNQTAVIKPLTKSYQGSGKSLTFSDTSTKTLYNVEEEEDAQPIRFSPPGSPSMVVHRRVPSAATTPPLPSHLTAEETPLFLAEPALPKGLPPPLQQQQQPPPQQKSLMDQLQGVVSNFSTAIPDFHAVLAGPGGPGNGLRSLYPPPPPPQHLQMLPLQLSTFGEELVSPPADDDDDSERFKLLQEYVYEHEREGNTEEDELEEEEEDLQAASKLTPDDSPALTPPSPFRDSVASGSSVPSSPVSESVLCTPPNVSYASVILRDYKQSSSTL
The nature of data set [9]: Protein binding in rat plasma assessed as fraction unbound. The data set is classed as ADME, cell-free.

The term EC50 denotes the concentration giving half of the maximal effect. One may read the fraction unbound as the share of the substance not bound to proteins or other matrix.

Some results are limits rather than exact numbers.

Sequence of Metabotropic glutamate receptor 7 (Q14831 whole entry): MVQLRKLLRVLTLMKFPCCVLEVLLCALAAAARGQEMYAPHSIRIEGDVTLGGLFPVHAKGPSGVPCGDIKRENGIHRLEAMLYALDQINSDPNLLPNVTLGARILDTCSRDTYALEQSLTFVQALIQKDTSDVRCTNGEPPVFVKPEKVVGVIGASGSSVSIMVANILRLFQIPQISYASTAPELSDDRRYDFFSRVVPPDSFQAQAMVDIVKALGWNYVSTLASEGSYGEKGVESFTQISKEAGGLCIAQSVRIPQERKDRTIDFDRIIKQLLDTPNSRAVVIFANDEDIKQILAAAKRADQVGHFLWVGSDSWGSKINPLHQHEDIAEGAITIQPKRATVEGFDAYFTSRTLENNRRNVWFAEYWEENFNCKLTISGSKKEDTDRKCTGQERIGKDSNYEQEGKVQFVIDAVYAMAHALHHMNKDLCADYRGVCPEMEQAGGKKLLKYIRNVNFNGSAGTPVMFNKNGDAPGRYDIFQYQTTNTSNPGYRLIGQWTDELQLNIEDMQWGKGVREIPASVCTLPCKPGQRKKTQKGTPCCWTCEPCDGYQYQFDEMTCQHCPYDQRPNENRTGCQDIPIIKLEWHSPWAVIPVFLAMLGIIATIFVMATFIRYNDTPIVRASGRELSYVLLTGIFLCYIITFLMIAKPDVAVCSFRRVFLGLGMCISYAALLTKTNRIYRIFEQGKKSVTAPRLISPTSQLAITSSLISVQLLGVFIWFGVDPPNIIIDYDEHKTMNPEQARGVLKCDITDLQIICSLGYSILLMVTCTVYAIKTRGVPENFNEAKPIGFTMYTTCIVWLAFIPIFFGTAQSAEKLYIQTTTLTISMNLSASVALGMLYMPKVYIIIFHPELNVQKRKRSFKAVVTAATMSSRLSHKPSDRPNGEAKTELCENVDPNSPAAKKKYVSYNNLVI
Sequence of Metabotropic glutamate receptor 3 (Q14832 whole entry): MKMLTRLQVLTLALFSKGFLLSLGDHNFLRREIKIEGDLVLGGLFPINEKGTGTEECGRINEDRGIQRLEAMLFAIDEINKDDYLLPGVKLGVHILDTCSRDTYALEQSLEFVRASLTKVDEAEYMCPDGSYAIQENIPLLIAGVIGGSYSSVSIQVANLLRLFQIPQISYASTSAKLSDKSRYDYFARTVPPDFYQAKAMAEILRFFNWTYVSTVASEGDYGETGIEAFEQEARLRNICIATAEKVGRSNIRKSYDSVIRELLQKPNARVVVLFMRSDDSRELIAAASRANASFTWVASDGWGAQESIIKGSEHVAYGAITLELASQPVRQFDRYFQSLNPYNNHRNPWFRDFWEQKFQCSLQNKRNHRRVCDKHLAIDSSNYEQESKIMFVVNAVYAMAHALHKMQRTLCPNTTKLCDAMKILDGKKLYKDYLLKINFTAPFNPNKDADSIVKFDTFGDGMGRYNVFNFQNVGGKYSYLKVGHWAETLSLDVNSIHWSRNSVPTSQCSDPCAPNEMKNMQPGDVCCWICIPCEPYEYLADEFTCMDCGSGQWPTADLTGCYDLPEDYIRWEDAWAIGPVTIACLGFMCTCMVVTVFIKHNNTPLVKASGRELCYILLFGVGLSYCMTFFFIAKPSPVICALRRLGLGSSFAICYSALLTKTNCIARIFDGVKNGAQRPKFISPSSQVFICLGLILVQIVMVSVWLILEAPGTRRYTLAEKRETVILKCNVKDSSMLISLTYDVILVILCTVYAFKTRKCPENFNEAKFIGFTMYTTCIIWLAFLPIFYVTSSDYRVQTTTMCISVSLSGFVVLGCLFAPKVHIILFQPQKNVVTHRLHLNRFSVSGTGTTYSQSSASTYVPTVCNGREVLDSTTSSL

Regarding `Cc1ccc2c(c1)C(=O)N(c1ccc(NC(=O)c3occc3C)c(F)c1)C2=O`, the EC50 in data set [1] is greater than 30 µM; in data set [2] it was greater than 30000 nM; in data set [3], greater than 30 µM; in data set [4] it was greater than 30 µM; in data set [5] it was greater than 30 µM; in [6], greater than 30 µM. Further, the figures for the 50% effective concentration (EC50) in data set [7] and in data set [8] were greater than 30000 nM and 0.022 µM, respectively.
For `Cc1ccoc1C(=O)Nc1c(F)cc(N2C(=O)[C@H]3CC=CC[C@H]3C2=O)c(F)c1F`, in data set [8], the concentration for a half-maximal effect (EC50) is greater than 10 µM.
Take `Cc1ccoc1C(=O)Nc1c(F)cc(N2C(=O)c3cccc(F)c3C2=O)c(F)c1F`: the EC50 in data set [8] was greater than 10 µM.
`Cc1cc(NC(=O)c2occc2C)c(F)cc1N1C(=O)c2ccccc2C1=O`: the fraction unbound in [9] amounted to 0.012.
Take `Cc1ccoc1C(=O)Nc1ccc(N2C(=O)c3ccccc3C2=O)c(C#N)c1`: the concentration for a half-maximal effect (EC50) in data set [8] is greater than 10 µM.
As for `Cc1ccoc1C(=O)Nc1cc(F)c(N2C(=O)c3ccccc3C2=O)c(F)c1`, in data set [8], the EC50 was greater than 10 µM.
As to `O=C(Nc1ccc(N2C(=O)C3C(C2=O)[C@H]2C=C[C@@H]3C2)cc1)c1ccccn1` (some centres not stated), the EC50 in data set [8] is greater than 30 µM.
`Cc1cc(N2C(=O)C3=C(CCCC3)C2=O)c(F)cc1NC(=O)c1ccco1`: the figures for the 50% effective concentration (EC50) in data set [2], in data set [7] and in data set [8] were 89 nM, 377 nM and greater than 10 µM, respectively.
In the case of `Cc1ccoc1C(=O)Nc1c(F)cc(N2C(=O)C3=C(CCCC3)C2=O)c(F)c1F`, in [8], the EC50 is greater than 10 µM.
For the molecule `Cc1ccoc1C(=O)Nc1c(F)cc(N2C(=O)c3ccccc3C2=O)cc1F`, in [8], the EC50 is greater than 10 µM.
On to `Cc1ccoc1C(=O)Nc1cc(F)c(N2C(=O)c3cccc(Cl)c3C2=O)c(F)c1F`, for which the unbound share (fraction unbound) in [9] was 0.012.
For `Cc1ccoc1C(=O)Nc1c(F)cc(N2C(=O)c3ccc(F)cc3C2=O)c(F)c1F`, the concentration giving a half-maximal response (EC50) in data set [8] is greater than 10 µM.
For the molecule `Cc1cc(N2C(=O)C3=C(CCCC3)C2=O)c(F)cc1NC(=O)c1occc1C`, the unbound share (fraction unbound) in data set [9] was determined as 0.012. Moreover, the concentration for a half-maximal effect (EC50) amounted to 266 nM in data set [2], 372 nM in [7] and 0.058 µM in data set [8].
With `Cc1nc(C(=O)Nc2cc(F)c(N3C(=O)C4=C(CCCC4)C3=O)cc2C)cs1`, the EC50 was 175 nM in data set [2], 1340 nM in data set [7] and greater than 10 µM in data set [8].
With `Cc1ccoc1C(=O)Nc1c(F)cc(N2C(=O)c3ccc(Cl)cc3C2=O)c(F)c1F`, the EC50 in data set [8] is greater than 10 µM.
As for `Cc1cc(N2C(=O)C3=C(CCCC3)C2=O)c(F)cc1NC(=O)c1ccc(Cl)o1`, the concentration for a half-maximal effect (EC50) was 229 nM in data set [2], 400 nM in data set [7] and greater than 10 µM in data set [8].

The values above are taken from ChEMBL document CHEMBL4680299 (Bioorg Med Chem Lett, 2021).
